Measured values as given in patent US4223024A, “4"-O-Alkylgentamicins and sagamicins” (Abbott Laboratories, priority 1979, dated 1980).
≈ marks a conversion by molar mass, not a printed value.

Assays:
[1] = tested on: Staphylococcus aureus ATCC 6538P; assay: two fold dilution test (MIC), Staphylococcus aureus ATCC 6538P; type: cell-based; conditions: Streptomycin Assay Agar with yeast extract, pH 7.9, overnight
Protocol: (§1) The in vitro antibiotic activity is determined by a two fold dilution test using Streptomycin Assay Agar with yeast extract (at pH 7.9). The inoculum of approximately 1×10^5 of the indicated test organism is delivered by a multiple inoculator. The test is incubated over night.
(§2) The minimum inhibitory concentrations for the compounds of Example 4, Example 8, compound 1 and Example 12 compound, are set forth in Table II. The minimum inhibitory concentrations (MIC) are expressed in micrograms per ml.

[2] = tested on: Streptococcus faecalis ATCC 10541; assay: two fold dilution test (MIC), Streptococcus faecalis ATCC 10541; type: cell-based; conditions: pH 7.9, overnight; for MIC (minimum inhibitory concentration): Streptomycin Assay Agar with yeast extract
Protocol: as §1, §2

[3] = tested on: Escherichia coli ATCC 26; assay: two fold dilution test (MIC), Escherichia coli ATCC 26; type: cell-based; conditions: pH 7.9, overnight; for MIC (minimum inhibitory concentration): Streptomycin Assay Agar with yeast extract
Protocol: as §1, §2

[4] = tested on: Escherichia coli R3; assay: two fold dilution test (MIC), Escherichia coli R3; type: cell-based; conditions: Streptomycin Assay Agar with yeast extract, pH 7.9, overnight
Protocol: as §1, §2

[5] = tested on: Pseudomonas aeruginosa BMH #1; assay: two fold dilution test (MIC), Pseudomonas aeruginosa BMH #1; type: cell-based; conditions: Streptomycin Assay Agar with yeast extract, pH 7.9, overnight
Protocol: as §1, §2

[6] = tested on: Bacillis subtilis U. of I1. 10707; assay: two fold dilution test (MIC), Bacillis subtilis U. of I1. 10707; type: cell-based; conditions: Streptomycin Assay Agar with yeast extract, pH 7.9, overnight
Protocol: as §1, §2

[7] = tested on: Proteus vulgaris ATCC 6897; assay: two fold dilution test (MIC), Proteus vulgaris ATCC 6897; type: cell-based; conditions: pH 7.9, overnight; for MIC (minimum inhibitory concentration): Streptomycin Assay Agar with yeast extract
Protocol: as §1, §2

[8] = tested on: Shigella sonnei ATCC 9290; assay: two fold dilution test (MIC), Shigella sonnei ATCC 9290; type: cell-based; conditions: pH 7.9, overnight; for MIC (minimum inhibitory concentration): Streptomycin Assay Agar with yeast extract
Protocol: as §1, §2

[9] = tested on: Salmonella typhi ATCC 9992; assay: two fold dilution test (MIC), Salmonella typhi ATCC 9992; type: cell-based; conditions: for MIC (minimum inhibitory concentration): Salmonella typhi ATCC 9992, Streptomycin Assay Agar with yeast extract, pH 7.9, overnight
Protocol: as §1, §2

[10] = tested on: Klebsiella pneumonia ATCC 10031; assay: two fold dilution test (MIC), Klebsiella pneumonia ATCC 10031; type: cell-based; conditions: pH 7.9, overnight; for MIC (minimum inhibitory concentration): Streptomycin Assay Agar with yeast extract
Protocol: as §1, §2

[11] = tested on: aerobic gram-negative bacteria; conditions: background statement; cited from earlier work
[12] = compared with gentamicin; background statement; cited from earlier work
[13] = read-out: MIC (minimum inhibitory concentration)

| Compound | MIC (minimum inhibitory concentration) [1] [µg/mL] | MIC (minimum inhibitory concentration) [2] [µg/mL] | MIC (minimum inhibitory concentration) [3] [µg/mL] | MIC (minimum inhibitory concentration) [4] [µg/mL] | MIC (minimum inhibitory concentration) [5] [µg/mL] | MIC (minimum inhibitory concentration) [6] [µg/mL] | MIC (minimum inhibitory concentration) [7] [µg/mL] | MIC (minimum inhibitory concentration) [8] [µg/mL] | MIC (minimum inhibitory concentration) [9] [µg/mL] | MIC (minimum inhibitory concentration) [10] [µg/mL] | other results |
| --- | --- | --- | --- | --- | --- | --- | --- | --- | --- | --- | --- |
| CNCC1CCC(N)C(OC2C(N)CC(N)C(OC3OCC(C)(OC)C(NC)C3O)C2O)O1 (centres unmarked) [Ex 8(1), 4"-O-Methylsagamicin] | – | – | – | – | – | – | – | – | – | – | MIC ([1]; ATCC6538P, read-out: MIC (minimum inhibitory concentration)): 0.05 µg/mL (≈ 0.105 µM); MIC ([2]; Enterococcus faecalis, ATCC10541, Streptomycin Assay Agar with yeast extract, read-out: MIC (minimum inhibitory concentration)): 12.5 µg/mL (≈ 26.2 µM); MIC ([3]; ATCC26, Streptomycin Assay Agar with yeast extract, read-out: MIC (minimum inhibitory concentration)): 0.05 µg/mL (≈ 0.105 µM); MIC [4, 13]: 3.1 µg/mL (≈ 6.49 µM); MIC [5, 13]: 0.4 µg/mL (≈ 0.838 µM); MIC [6, 13]: 0.005 µg/mL (≈ 0.0105 µM); MIC ([7]; ATCC6897, Streptomycin Assay Agar with yeast extract, read-out: MIC (minimum inhibitory concentration)): 0.05 µg/mL (≈ 0.105 µM); MIC ([8]; ATCC9290, Streptomycin Assay Agar with yeast extract, read-out: MIC (minimum inhibitory concentration)): 0.05 µg/mL (≈ 0.105 µM); MIC ([9]; Salmonella enterica, pH 7.9, read-out: MIC (minimum inhibitory concentration)): 0.05 µg/mL (≈ 0.105 µM); MIC ([10]; Klebsiella pneumoniae, ATCC10031, Streptomycin Assay Agar with yeast extract, read-out: MIC (minimum inhibitory concentration)): 0.05 µg/mL (≈ 0.105 µM) |
| gentamicin | – | – | – | – | – | – | – | – | – | – | anti-bacterial spectrum / effectiveness [11]: effective against most aerobic gram-negative bacteria |
| CNC1C(O)C(OC2C(N)CC(N)C(OC3OC(CN)CCC3N)C2O)OCC1(C)OC (stereo not drawn) [Ex 12, 5-Epi-4"-O-methylgentamicin C1a] | 0.005 (≈ 0.0108 µM) | 25.00 (≈ 53.9 µM) | 0.02 (≈ 0.0431 µM) | 2.5 (≈ 5.39 µM) | 0.63 (≈ 1.36 µM) | 0.005 (≈ 0.0108 µM) | 0.08 (≈ 0.173 µM) | 0.08 (≈ 0.173 µM) | 0.01 (≈ 0.0216 µM) | 0.005 (≈ 0.0108 µM) | – |
| CNC1C(O)C(OC2C(N)CC(N)C(OC3OC(CN)CCC3N)C2O)OCC1(C)OC (centres unmarked) [Ex 4, 4"-O-Methylgentamicin C1a] | 0.005 (≈ 0.0108 µM) | 10.000 (≈ 21.6 µM) | 0.005 (≈ 0.0108 µM) | 10.000 (≈ 21.6 µM) | 0.63 (≈ 1.36 µM) | 0.005 (≈ 0.0108 µM) | 0.08 (≈ 0.173 µM) | 0.04 (≈ 0.0863 µM) | 0.01 (≈ 0.0216 µM) | 0.005 (≈ 0.0108 µM) | – |
| CNCC1CCC(N)C(OC2C(N)CC(N)C(OC3OCC(C)(O)C(NC)C3O)C2O)O1 (centres unmarked) [Sagamicin, sagamicin] | – | – | – | – | – | – | – | – | – | – | ototoxicity [12]: lower ototoxicity than does gentamicin |
